Consider 5 compounds from PMC11951083, “Highly Specific Miniaturized Fluorescent Monoacylglycerol Lipase Probes Enable Translational Research” (Journal of the American Chemical Society, 2025).

In assay [1] the target is ACE (h) (Homo sapiens, UniProt P12821). Put plainly: ACE (h). The note with it: read-out: Inhibition ACE (h).
The target of assay [2] is T1, AR(h) (Homo sapiens, UniProt P10275).
T1 sequence (P10275 1-920): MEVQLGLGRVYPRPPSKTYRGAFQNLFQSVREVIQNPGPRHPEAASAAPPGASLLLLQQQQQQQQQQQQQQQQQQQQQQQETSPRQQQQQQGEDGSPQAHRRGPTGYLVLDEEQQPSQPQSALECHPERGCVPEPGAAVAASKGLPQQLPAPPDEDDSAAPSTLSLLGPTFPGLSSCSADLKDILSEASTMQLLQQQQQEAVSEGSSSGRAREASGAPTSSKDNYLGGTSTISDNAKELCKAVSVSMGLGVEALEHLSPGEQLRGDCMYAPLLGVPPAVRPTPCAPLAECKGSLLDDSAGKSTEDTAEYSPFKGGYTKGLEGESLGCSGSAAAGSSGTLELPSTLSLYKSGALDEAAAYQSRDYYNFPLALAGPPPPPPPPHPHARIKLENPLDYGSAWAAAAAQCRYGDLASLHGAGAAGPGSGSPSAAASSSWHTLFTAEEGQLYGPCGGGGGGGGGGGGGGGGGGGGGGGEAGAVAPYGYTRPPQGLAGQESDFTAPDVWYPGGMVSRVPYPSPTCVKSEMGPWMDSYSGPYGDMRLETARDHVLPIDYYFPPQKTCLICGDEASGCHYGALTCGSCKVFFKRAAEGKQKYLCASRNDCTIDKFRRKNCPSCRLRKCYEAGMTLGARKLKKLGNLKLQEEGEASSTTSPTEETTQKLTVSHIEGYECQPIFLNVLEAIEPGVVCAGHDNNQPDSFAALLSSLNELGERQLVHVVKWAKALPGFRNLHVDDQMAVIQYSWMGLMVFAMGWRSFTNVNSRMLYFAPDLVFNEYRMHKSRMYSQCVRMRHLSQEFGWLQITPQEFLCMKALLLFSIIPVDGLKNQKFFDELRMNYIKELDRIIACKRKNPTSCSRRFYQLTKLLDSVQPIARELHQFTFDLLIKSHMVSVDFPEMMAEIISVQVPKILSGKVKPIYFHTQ
Put plainly: AR(h) (agonist radioligand). The note with it: read-out: Inhibition AR(h) (agonist radioligand).

Assay [3] deals with D1 (h) (Homo sapiens, UniProt P21728). Put plainly: D1 (h) (antagonist radioligand). The following applies: read-out: Inhibition D1 (h) (antagonist radioligand).
The target of assay [4] is T2, M1 (h) (Homo sapiens, UniProt P11229).
T2 sequence (P11229 1-460): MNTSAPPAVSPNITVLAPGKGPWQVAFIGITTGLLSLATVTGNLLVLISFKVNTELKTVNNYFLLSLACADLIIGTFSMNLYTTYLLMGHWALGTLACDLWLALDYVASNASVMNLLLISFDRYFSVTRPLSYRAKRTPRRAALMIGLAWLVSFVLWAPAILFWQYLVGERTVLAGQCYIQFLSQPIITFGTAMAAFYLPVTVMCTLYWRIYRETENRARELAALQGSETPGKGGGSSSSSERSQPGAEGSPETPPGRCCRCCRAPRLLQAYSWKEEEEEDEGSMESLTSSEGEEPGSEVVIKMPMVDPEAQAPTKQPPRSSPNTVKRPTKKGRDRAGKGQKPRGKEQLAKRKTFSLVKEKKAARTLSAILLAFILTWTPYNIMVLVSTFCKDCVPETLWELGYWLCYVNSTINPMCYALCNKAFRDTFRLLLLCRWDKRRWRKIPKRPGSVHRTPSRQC
Put plainly: M1 (h) (antagonist radioligand). The note with it: read-out: Inhibition M1 (h) (antagonist radioligand).

Assay [5] addresses H2 (h) (Homo sapiens, UniProt P25021). Put plainly: H2 (h) (antagonist radioligand). The note with it: read-out: Inhibition H2 (h) (antagonist radioligand).
The target in assay [6] is T3, 5-HT3 (h) (Homo sapiens, UniProt P46098).
T3 sequence (P46098 24-478): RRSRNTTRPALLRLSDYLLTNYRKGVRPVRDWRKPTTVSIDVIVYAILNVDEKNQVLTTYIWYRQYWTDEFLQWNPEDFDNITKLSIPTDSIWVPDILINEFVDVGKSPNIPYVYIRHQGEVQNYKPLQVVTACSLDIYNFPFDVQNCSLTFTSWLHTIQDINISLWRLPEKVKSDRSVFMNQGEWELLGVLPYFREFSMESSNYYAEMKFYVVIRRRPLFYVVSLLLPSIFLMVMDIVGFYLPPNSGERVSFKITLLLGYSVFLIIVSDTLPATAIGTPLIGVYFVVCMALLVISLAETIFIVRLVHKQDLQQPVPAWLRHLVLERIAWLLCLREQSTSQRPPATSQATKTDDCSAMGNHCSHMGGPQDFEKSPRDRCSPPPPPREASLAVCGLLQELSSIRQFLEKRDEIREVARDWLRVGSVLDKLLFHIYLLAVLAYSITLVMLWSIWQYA
Put plainly: 5-HT3 (h) (antagonist radioligand). The note with it: read-out: Inhibition 5-HT3 (h) (antagonist radioligand).

Assay [7] deals with xanthine oxidase/ superoxide O2- scavenging (Bos taurus, UniProt P80457). The assay can be described thus: xanthine oxidase/ superoxide O2- scavenging. The note with it: read-out: Inhibition xanthine oxidase/ superoxide O2- scavenging.
In assay [8] the target is 5-HT transporter (h) (Homo sapiens, UniProt P31645). The assay can be described thus: 5-HT transporter (h) (antagonist radioligand). The following applies: read-out: Inhibition 5-HT transporter (h) (antagonist radioligand).
In assay [9] the test system is Cl- channel (GABA-gated). The assay can be described thus: Cl- channel (GABA-gated) (antagonist radioligand). The following applies: 10 µM.
Assay [10] concerns the target MMP-9 (h) (Homo sapiens, UniProt P14780). Put plainly: MMP-9 (h). The following applies: read-out: Inhibition MMP-9 (h).

Chain of MMP-9 (h) (P14780 94-707): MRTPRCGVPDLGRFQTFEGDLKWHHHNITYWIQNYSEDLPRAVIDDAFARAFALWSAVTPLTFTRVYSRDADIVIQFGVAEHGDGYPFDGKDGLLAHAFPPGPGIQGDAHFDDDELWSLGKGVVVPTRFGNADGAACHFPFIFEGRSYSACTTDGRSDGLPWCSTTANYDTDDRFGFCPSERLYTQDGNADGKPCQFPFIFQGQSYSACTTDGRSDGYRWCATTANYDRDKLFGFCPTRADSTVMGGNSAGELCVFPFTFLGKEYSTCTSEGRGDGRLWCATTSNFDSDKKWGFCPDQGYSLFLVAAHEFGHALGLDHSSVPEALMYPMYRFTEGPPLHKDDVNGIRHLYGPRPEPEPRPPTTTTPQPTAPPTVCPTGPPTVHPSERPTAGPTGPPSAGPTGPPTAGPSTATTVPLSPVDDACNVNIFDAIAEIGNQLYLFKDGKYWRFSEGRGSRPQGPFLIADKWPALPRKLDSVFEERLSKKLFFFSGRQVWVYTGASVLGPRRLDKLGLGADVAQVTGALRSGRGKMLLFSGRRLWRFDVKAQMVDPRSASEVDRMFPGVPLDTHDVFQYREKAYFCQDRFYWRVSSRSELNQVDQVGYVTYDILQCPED
Chain of H2 (h) (P25021 whole entry): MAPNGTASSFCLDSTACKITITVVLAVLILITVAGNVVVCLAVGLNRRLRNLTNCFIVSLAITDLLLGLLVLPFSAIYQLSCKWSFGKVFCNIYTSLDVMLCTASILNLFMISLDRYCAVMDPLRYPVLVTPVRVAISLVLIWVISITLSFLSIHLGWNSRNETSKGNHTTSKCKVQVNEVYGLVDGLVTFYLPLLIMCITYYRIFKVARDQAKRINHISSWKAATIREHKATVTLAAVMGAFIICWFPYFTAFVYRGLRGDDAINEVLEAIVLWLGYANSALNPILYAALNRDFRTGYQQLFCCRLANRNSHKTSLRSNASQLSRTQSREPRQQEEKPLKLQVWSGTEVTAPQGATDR
Chain of xanthine oxidase/ superoxide O2- scavenging (P80457 whole entry): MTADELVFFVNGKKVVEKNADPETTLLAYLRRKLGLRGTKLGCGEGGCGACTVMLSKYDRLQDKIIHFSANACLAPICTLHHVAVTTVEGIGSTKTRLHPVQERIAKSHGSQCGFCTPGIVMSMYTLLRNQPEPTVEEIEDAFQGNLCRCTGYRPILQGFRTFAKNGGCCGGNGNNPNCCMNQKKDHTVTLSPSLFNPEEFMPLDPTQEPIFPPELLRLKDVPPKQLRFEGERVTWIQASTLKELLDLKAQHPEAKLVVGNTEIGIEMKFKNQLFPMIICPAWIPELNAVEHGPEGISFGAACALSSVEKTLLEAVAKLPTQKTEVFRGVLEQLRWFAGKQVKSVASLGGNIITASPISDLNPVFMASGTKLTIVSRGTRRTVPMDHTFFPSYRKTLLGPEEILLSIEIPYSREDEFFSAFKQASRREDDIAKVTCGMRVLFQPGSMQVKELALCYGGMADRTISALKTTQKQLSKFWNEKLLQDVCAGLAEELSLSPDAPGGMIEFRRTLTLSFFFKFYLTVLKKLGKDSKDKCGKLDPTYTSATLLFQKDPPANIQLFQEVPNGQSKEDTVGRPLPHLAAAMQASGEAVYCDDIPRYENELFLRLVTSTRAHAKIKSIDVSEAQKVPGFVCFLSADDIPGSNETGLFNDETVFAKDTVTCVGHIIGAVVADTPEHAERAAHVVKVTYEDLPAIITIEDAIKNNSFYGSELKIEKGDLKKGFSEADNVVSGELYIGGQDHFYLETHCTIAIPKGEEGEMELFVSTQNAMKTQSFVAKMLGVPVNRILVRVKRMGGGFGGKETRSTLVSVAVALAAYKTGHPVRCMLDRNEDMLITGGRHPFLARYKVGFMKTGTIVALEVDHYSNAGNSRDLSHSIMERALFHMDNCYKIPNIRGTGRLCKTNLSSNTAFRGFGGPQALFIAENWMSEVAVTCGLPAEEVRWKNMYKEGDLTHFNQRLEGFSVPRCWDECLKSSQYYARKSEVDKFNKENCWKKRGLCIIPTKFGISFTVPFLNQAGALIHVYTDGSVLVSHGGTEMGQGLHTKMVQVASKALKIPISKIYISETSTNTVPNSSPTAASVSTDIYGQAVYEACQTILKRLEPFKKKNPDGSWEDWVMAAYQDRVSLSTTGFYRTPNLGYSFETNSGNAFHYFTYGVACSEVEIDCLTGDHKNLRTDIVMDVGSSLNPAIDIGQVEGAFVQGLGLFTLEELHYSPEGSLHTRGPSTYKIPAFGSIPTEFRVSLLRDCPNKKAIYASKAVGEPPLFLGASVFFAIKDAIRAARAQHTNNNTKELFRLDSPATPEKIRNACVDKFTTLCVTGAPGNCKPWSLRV
Chain of 5-HT transporter (h) (P31645 whole entry): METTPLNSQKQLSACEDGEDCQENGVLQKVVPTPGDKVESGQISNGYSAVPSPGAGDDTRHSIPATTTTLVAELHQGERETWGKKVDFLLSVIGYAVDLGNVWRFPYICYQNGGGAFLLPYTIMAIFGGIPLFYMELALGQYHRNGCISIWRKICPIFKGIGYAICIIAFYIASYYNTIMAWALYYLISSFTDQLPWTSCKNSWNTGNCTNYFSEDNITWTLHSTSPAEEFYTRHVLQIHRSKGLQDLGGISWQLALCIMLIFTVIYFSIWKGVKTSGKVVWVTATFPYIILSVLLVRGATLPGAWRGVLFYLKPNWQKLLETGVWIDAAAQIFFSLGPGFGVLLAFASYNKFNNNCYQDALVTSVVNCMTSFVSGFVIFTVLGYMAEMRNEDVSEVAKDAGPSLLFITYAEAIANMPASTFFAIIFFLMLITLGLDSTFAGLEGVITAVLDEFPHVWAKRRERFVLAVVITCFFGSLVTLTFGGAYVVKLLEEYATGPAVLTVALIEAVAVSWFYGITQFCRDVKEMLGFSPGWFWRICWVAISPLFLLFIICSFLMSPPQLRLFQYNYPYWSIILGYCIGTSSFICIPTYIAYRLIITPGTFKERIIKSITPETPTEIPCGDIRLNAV
Chain of D1 (h) (P21728 whole entry): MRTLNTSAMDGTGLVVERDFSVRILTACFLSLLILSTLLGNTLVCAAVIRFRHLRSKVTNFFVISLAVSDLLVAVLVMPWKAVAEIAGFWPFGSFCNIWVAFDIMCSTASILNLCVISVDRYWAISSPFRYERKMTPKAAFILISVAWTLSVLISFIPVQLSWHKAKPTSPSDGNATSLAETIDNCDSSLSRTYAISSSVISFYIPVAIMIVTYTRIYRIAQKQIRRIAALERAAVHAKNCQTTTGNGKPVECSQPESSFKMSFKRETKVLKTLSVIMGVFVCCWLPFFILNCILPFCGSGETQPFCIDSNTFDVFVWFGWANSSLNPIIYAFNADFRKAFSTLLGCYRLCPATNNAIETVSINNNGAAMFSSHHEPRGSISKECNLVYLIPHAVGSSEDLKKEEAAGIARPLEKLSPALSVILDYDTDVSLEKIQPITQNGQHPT
Chain of ACE (h) (P12821 30-1306): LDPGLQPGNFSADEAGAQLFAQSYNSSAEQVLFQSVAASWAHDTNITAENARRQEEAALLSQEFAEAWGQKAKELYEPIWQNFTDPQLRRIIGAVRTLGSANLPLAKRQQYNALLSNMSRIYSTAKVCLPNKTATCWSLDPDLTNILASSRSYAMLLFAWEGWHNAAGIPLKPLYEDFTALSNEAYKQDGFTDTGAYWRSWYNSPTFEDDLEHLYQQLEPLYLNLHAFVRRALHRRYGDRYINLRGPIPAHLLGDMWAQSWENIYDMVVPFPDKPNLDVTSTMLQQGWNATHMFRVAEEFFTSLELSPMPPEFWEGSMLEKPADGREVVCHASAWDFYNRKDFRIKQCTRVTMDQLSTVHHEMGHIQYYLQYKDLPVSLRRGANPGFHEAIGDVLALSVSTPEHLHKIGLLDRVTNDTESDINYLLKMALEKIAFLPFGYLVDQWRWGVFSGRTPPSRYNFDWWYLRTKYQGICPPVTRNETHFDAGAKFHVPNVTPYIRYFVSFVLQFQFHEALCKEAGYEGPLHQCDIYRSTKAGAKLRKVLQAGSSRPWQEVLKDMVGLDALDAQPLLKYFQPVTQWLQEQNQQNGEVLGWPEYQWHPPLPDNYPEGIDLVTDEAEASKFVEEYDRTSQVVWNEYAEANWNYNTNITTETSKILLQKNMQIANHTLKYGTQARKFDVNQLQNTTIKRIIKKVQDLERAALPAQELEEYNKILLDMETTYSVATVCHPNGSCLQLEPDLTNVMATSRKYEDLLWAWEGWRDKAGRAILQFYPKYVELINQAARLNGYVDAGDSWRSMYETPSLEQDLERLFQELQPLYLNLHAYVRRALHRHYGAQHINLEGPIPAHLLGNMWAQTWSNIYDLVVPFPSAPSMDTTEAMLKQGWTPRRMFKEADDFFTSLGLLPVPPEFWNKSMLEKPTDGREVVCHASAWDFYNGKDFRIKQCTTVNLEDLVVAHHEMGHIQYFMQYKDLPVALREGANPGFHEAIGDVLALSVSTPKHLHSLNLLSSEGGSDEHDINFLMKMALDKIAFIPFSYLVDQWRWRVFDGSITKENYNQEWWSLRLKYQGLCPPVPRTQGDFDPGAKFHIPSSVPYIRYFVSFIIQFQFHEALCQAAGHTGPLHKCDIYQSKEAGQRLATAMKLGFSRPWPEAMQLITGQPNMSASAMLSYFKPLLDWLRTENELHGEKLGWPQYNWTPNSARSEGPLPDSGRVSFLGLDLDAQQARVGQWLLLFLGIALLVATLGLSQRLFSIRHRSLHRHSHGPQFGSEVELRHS

`O=C(O[C@H](CO)C(F)(F)F)N1CC2(CC(CC3=C4C=CC=[N+]4[B-](F)(F)n4cccc43)C2)C1` [Compound 1]: the inhibition at 10 µM was -10.4% in assay [1]; -14.2% in [2]; 8.1% in assay [3]; 33.5% in assay [4]; -10.7% in assay [5]; 7.4% in assay [6]. Further, the inhibition at 10 µM in assay [7] is -29.7%; in assay [8], 13%. In addition, the “Inhibition Cl- channel (GABA-gated) (antagonist radioligand)” value (“Inhibition Cl- channel (GABA-gated)” below) in assay [9] is 41,90%.
As for `O=C(OC(C(F)(F)F)C(F)(F)F)N1CC2(CC(CC3=C4C=CC=[N+]4[B-](F)(F)n4cccc43)C2)C1` [Compound 2], the inhibition at 10 µM is -15.8% in assay [1]; 4.5% in [10]; 4.2% in [2]; -1.2% in [3]; 26% in [4]; -18.7% in assay [5]. Besides, the inhibition at 10 µM in [6] is -5.6%; in assay [7] it was 1.8%; in [8], -4.8%. Also, the “Inhibition Cl- channel (GABA-gated)” value in assay [9] is given as 51,90%.
As for `O=C(OC(C(F)(F)F)C(F)(F)F)N1CC2(CC(CC3=C4C=CC(c5ccc[nH]5)=[N+]4[B-](F)(F)n4cccc43)C2)C1` [Compound 2a], the inhibition at 10 µM is -4.4% in [1]; 9.7% in [10]; 6% in [2]; 6.1% in assay [3]; -0.7% in assay [4]; -48.6% in [5]. Moreover, the inhibition at 10 µM was 4.7% in [6], 7.8% in assay [7] and -12.9% in assay [8]. The “Inhibition Cl- channel (GABA-gated)” value in [9] is recorded as 40,80%.
On to `O=C1CO[C@H]2CCN(C(=O)N3CC4(CC(CC5=C6C=CC(c7ccc[nH]7)=[N+]6[B-](F)(F)n6cccc65)C4)C3)C[C@H]2N1` [Compound 4a], for which the inhibition at 10 µM was -21.2% in [1]; 47% in assay [10]; -1.4% in [2]; 7.5% in [3]; 4% in assay [4]; -34.8% in [5]. Also, the inhibition at 10 µM in assay [6] is 1.1%; in assay [7], 24.1%; in [8] it was -9.6%. The “Inhibition Cl- channel (GABA-gated)” value in assay [9] was 40,30%.
For `O=C(N1CC2(CC(CC3=C4C=CC=[N+]4[B-](F)(F)n4cccc43)C2)C1)N1CC2(CC(n3cnc(C4CC4)n3)C2)C1` [Compound 5], the inhibition at 10 µM was -21.1% in assay [1]; 16.8% in [10]; -19.8% in [2]; 7.3% in [3]; 14.7% in assay [4]; -1.9% in assay [5]. Besides, the values for the inhibition at 10 µM in assay [6], in [7] and in [8] were 1.4%, -16.6% and 56.5%, respectively. In assay [9], the “Inhibition Cl- channel (GABA-gated)” value is reported as 20,90%.
